Data set [1] relates to chloroquine-sensitive clone D6 of P. falciparum. Nature of the data set: Antimalarial activity assay, SYBR Green I fluorescence-based method. The format is cell-based, Plasmodium falciparum. Particulars: for IC50: read-out: Antimalarial IC50 (D6); for IC90: read-out: Antimalarial IC90 (D6). The method, then:
(§1) An antimalarial activity assay was carried out at the Oregon Translational Research and Drug Development Institute (OTRADI). Two strains of P. falciparum were used. The chloroquine-sensitive clone D6, and chloroquine-resistant and MDR clone Dd2 was obtained from the Malaria Research and Reference Reagent Resource Center (MR4) (Manassas, Va.). The parasites were cultured according to the method of Trager and Jensen (Trager and Jensen, Science, 1976, 193:673-675), with minor modifications. The cultures were maintained in human erythrocytes (Lampire Biological Laboratories, Pipersville, Pa.), suspended at 2% hematocrit in RPMI 1640 (Sigma) containing 0.5% Albumax (Invitrogen), […] hypoxanthine (Lancaster), and 50 μg/L gentamicin (Invitrogen), and incubated at 37° C. under a gas mixture of 5% O2, 5% CO2, and 90% N2. In vitro antimalarial activity was determined by a SYBR Green I fluorescence-based method described previously by Smilkstein et al. (Smilkstein et al., Antimicrob. Agents Chemother., 2004, 48:1803-1806). Frozen stock solutions of each test drug (1 mM in DMSO) were thawed, warmed to 37° C., and mixed thoroughly prior to use. Drug solutions were serially diluted with culture medium, and distributed to asynchronous parasite cultures on 96-well plates in quadruplicate in a total volume of 100 μL to achieve 0.2% parasitemia with a 2% hematocrit in a total volume of 100 μL. Automated pipeting and dilution was carried using programmable Precision XS (Bio-Tek, Winooski, Vt.) and Sciclone ALH3000 (Caliper, Hopkinton, Mass.) robotic stations. The plates then were incubated for 72 hours at temperature and gas conditions described above. After incubation, 100 μL of lysis buffer with SYBR Green I was added to each well. The plates were incubated at room temperature for 1 h and then placed in a 96-well fluorescence plate reader (Synergy4, BioTek, Winooski, Vt.) with excitation and emission wavelength at 485 nm and 528 nm, respectively, for measurement of fluorescence. The 50% inhibitory concentration (IC50) was determined by non-linear regression analysis of logistic dose-response curves (GraphPad Prism software).

Data set [2] deals with chloroquine-resistant and MDR clone Dd2 of P. falciparum. The description is as above. The format is cell-based, Plasmodium falciparum. The settings on record: for IC50: read-out: Antimalarial IC50 (Dd2); for IC90: read-out: Antimalarial IC90 (Dd2). The method, then: as §1
Data set [3] can be described thus: Cytotoxicity assay (WST-8) against HCT116 cells. The class given is cell-based. Particulars: human, HCT116 colorectal carcinoma cells, estimated. The method, then: HCT116 (colorectal carcinoma) cells were seeded onto a 96-well plate at 10,000 cells per well. Cells were treated with either 5, 50, 500 or 5000 nM TM-025, TM-026, N-acetyl-glucosaminyl-3-aminoacetophenone or 5, 25, 50, 100 nM pactamycin in triplicate for 48 hours. For the narrow range concentration assays, cells were treated with either 0.5, 1, 2 or 4 μM TM-025; 1, 2, 3 or 5 μM TM-026; 0.5, 2, 5 or 7 μM N-acetylglucosaminyl-3-aminoacetophenone or 12.5, 25, 50, 100 nM pactamycin in triplicate for 24 or 48 hours. WST-8 [2-(2-methoxy-4-nitrophenyl)-3-[…], monosodium salt] (Dojindo, Rockville, Md.) was added to each well to give an orange-colored formazan product, which is soluble in tissue culture medium. Absorbance was measured at 450 nm. Percent of viable cells was calculated relative to the “No Treatment” and “Solvent Only” wells.

In data set [4] the test system is Gram-positive and Gram-negative bacteria. Nature of the data set: Antibacterial agar diffusion and micro-dilution assays, all tested strains (Example 1). The class given is cell-based, S. aureus, B. subtilis, P. aeruginosa, E. coli. Particulars: for antibacterial activity in agar diffusion and micro-dilution assays (in words): at the concentrations used; for IC50: consistently higher than pactamycin, mostly >1 mM, read-out: IC50 against all tested bacterial strains. As to the method:
The antibacterial activity of pactamycin and its analogs was determined by agar diffusion and micro-dilution assays. E. coli, P. aeruginosa, B. subtilis or M. smegmatis, and S. aureus were streaked on nutrient agar (Difco or Beckton-Dickinson) and grown overnight at 37° C. Colonies were transferred to nutrient broth and incubated at 37° C. for 24 hours. Turbidity of the inoculum was measured to a proper density at 600 nm (BioRad, SmartSpec 3000). For plate preparation, inoculum (500 μL) was mixed thoroughly with warm nutrient agar (50 mL) and poured to 25 mL square plates. The agar plates were allowed to solidify and dry for 30 min before assay. Sterile blank paper disks (Becton-Dickinson) were impregnated with pactamycin and its analogs (20 μL) at various concentrations and dried at room temperature. The disks were placed onto inoculated agar plates and incubated at 37° C. for 24 hours. In order to produce a contrast background of the inhibition zone, 0.25% MTT developing dye (1 mL) was added over the plates.
Micro-dilution assays were performed in 96-well plates. The compounds were serially diluted and added to the bacterial suspension at final concentrations of 1 mM-10 nM, or 0.5 mM-10 nM. After incubation at 37° C. for 24 hours, 0.25% MTT developing dye (50 μL) was added. Each assay was done in triplicate.
A general note: A growth-free zone around the sample is the usual read-out of agar diffusion tests.

A further data set relates to Staphylococcus aureus. Nature of the data set: Antibacterial agar diffusion assay (Example 2). The format is cell-based. As to the method: (§2) Antibacterial activity of pactamycin and its analogues was determined by an agar diffusion assay. E. coli, Pseudomonas aeruginosa, Mycobacterium smegmatis, and Staphylococcus aureus were streaked on nutrient agar (Difco) and grown overnight at 37° C. Colonies were transferred to nutrient broth and incubated at 37° C. for 24 hours. Turbidity of the inoculum was measured to a proper density at 600 nm (BioRad, SmartSpec 3000). For plate preparation, inoculum (500 μL) was mixed thoroughly with warm nutrient agar (50 mL) and poured to 25 mL square plates. The agar plates were allowed to solidify and dry for 30 minutes before assay. Sterile blank paper disks (Becton-Dickinson) were impregnated with pactamycin and its analogues (20 μL) at various concentrations and dried at room temperature. The disks were placed onto inoculated agar plates and incubated at 37° C. for 24 hours. In order to produce a contrast background of the inhibition zone, 0.25% MTT developing dye (1 mL) was added over the plates.

A further data set relates to Pseudomonas aeruginosa. Nature of the data set: Antibacterial agar diffusion assay (Example 2). The class given is cell-based. The method, then: as §2
The test system of the next data set is Mycobacterium smegmatis. Nature of the data set: Antibacterial agar diffusion assay (Example 2). The class given is cell-based. The method, then:
as §2

The test system of another data set is E. coli. Nature of the data set: Antibacterial agar diffusion assay (Example 2). The format is cell-based, Escherichia coli. The method, then: as §2
In data set [5] the test system is HT-29 human colon carcinoma cells. Nature of the data set: SRB growth inhibition assay in HT-29 cells. The class given is cell-based. As to the method: Growth inhibition of HT-29 cells induced by the test compounds was also evaluated by the SRB assay, which is based on measuring total biomass by staining the cellular proteins with sulforhodamine B (Skehan et al., J. Natl. Cancer Inst., 1990, 82:1107). After treating the HT-29 cells with the compounds for 24 hours, the adherent cells grown in 96-well plates were fixed with 10% trichloroacetic acid and incubated for 1 hour at 4° C. The plates were washed five times with tap water, dried, and stained with SRB solution (0.4% wt/vol in 1% acetic acid) for 30 minutes at room temperature. The plates were again washed and dried before adding 10 mM Tris base to solubilize the bound stain. Optical densities (OD) were read at 564 nm in SpectraMax 250 and cell growth of treated cells was expressed as the percentage of control cells, ODtest/ODcontrol×100%.

Data set [6] concerns human colon cancer HT-29 cells. Nature of the data set: MTT cell viability assay in HT-29 cells. Particulars: HT-29 cells, 24-hour. The class given is cell-based. The method, then: The MTT assay was carried out as described by Mosmann (J. Immunol. Methods, 1983, 65:55). Briefly, human colon cancer HT-29 cells (ATCC) were seeded in 96-well plates at a density of 1.0×10^4 cells per well. The growth medium consisted of phenol red-free RPMI 1640 (Invitrogen, Carlsbad, Calif.) containing 10% fetal bovine serum (Invitrogen, Carlsbad, Calif.), glutamine (2 mM), penicillin (100 units/mL) and streptomycin (100 μg/mL). After a 24-hour incubation at 37° C. in a humidified atmosphere of 5% CO2, the medium was removed and replaced with fresh RPMI 1640 medium (with or without 10% FBS and no penicillin or streptomycin). Increasing concentrations of pactamycin, pactamycate, de-6MSA pactamycin, or de-6MSA-pactamycate dissolved in DMSO were added to cells at a volume of 0.2 mL/well. DMSO was added to control media not to exceed a final concentration of 1%. Following a 24-hour incubation, the medium was aspirated from each well and replaced with fresh RPMI medium with 10% FBS and MTT (0.5 mg/mL). […] The plate was shaken for 10 minutes before reading the absorbance at 570 nm using a microplate reader (SpectraMax 250, Molecular Devices, Sunnyvale, Calif., USA). The viability of treated cells was expressed as the percentage of control cells. […]
On the technique in general: Tetrazolium dyes change colour on reduction, which living cells bring about.

The mark [7] stands for this setting: Plasmodium falciparum, D6, 72 h, P. falciparum D6, 72 hours.
[8] abbreviates: Plasmodium falciparum, DD2, 72 h, P. falciparum Dd2, 72 hours.
Setting [9] is: Plasmodium falciparum, D6, 72 h.
Setting [10] is: Plasmodium falciparum, DD2, 72 h.

The source of these data is patent US20130231377A1, “PACTAMYCIN ANALOGS AND METHODS OF USE” (State of Oregon acting by and through the state Board of …, priority 2010, published 2013).

Read-outs that look alike come from different tables or passages of the source.

With `CC(=O)N[C@H]1C(Nc2cccc(C(C)=O)c2)O[C@H](CO)[C@@H](O)[C@@H]1O` (stereo partly shown) [N-acetylglucosaminyl-3-aminoacetophenone, reference compound], the “antimalarial activity (in words)” value in [1] (P. falciparum D6) and in data set [2] (P. falciparum Dd2) was “lack of activity” in each case.
With `CC(=O)c1cccc(N[C@H]2[C@H](N)[C@](C)(NC(=O)N(C)C)[C@@](C)(O)[C@@]2(O)CO)c1` [TM-025, de-6MSA-7-demethyl-7-deoxypactamycin], the IC50 in [3] is around 1300 nM; in data set [1] (P. falciparum D6, 72 hours) it was around 25 nM; in data set [1] (setting [7]), 25 to 30 nM; in data set [2] (P. falciparum Dd2, 72 hours), around 25 nM; in [2] (setting [8]) it was 25 to 30 nM; in data set [4], above 1 mM. The IC90 was around 62 nM in [1] (P. falciparum D6, 72 hours); 62 to 77 nM in data set [1] (setting [7]); around 76 nM in data set [2] (P. falciparum Dd2, 72 hours); 62 to 77 nM in data set [2] (setting [8]). Also, the “antibacterial activity in agar diffusion and micro-dilution assays (in words)” value in data set [4] is on record as “neither TM-025 nor TM-026 showed any significant activity”.
With `CC(=O)c1cccc(N[C@H]2[C@H](N)[C@](C)(NC(=O)N(C)C)[C@@](C)(O)[C@@]2(O)COC(=O)c2c(C)cccc2O)c1` [TM-026, 7-demethyl-7-deoxypactamycin], the IC50 in [3] was around 3000 nM; in data set [1] (P. falciparum D6, 72 hours), around 30 nM; in data set [1] (setting [7]), 25 to 30 nM; in data set [2] (P. falciparum Dd2, 72 hours), around 26 nM; in data set [2] (setting [8]), 25 to 30 nM; in [4] it was above 1 mM. Also, the IC90 in [1] (P. falciparum D6, 72 hours) was around 63 nM; in data set [1] (setting [7]), 62 to 77 nM; in data set [2] (P. falciparum Dd2, 72 hours), around 77 nM; in data set [2] (setting [8]) it was 62 to 77 nM. For the same compound, in data set [4], the “antibacterial activity in agar diffusion and micro-dilution assays (in words)” value is reported as “neither TM-025 nor TM-026 showed any significant activity”.
For `C[C@@H]1CC[C@H]2[C@@H](C)C(=O)O[C@@H]3O[C@@]4(C)CC[C@@H]1[C@]32OO4` [artemisinin, reference compound], the EC50 in data set [2] (Plasmodium falciparum, Example 2, FIG. 14, multi-drug resistant Dd2, read-out: EC50 against the Dd2 strain) was 7 nM.
As for `CCN(CC)CCCC(C)Nc1ccnc2cc(Cl)ccc12` (stereo not shown) [chloroquine, reference compound], in data set [1] (Plasmodium falciparum, D6, read-out: EC50 against the D6 strain), the EC50 turned out to be 10 nM.
For the compound `CC(=O)c1cccc(N[C@H]2[C@H](N)[C@]3(NC(=O)O[C@H]3C)[C@@](C)(O)[C@@]2(O)CO)c1` [de-6MSA-pactamycate], the “antibacterial activity, growth of Staphylococcus aureus” value in the data set with Staphylococcus aureus is given as “no antibacterial activity”. In the data set with Pseudomonas aeruginosa, the “antibacterial activity, growth of Pseudomonas aeruginosa” value is “no antibacterial activity”. For the same compound, the “antibacterial activity, growth of Mycobacterium smegmatis” value with Mycobacterium smegmatis was “no antibacterial activity”. For the same compound, the “antibacterial activity, growth of E. coli” value in the data set with E. coli is given as “no antibacterial activity”.
Take `CC(=O)c1cccc(N[C@H]2[C@H](N)[C@]3(NC(=O)O[C@H]3C)[C@@](C)(O)[C@@]2(O)COC(=O)c2c(C)cccc2O)c1` [pactamycate, reference compound]: the “antibacterial activity, growth of Staphylococcus aureus” value in the data set with Staphylococcus aureus is “no antibacterial activity”. Besides, in the data set with Pseudomonas aeruginosa, the “antibacterial activity, growth of Pseudomonas aeruginosa” value is recorded as “no antibacterial activity”. Also, the “antibacterial activity, growth of Mycobacterium smegmatis” value in the data set with Mycobacterium smegmatis is listed as “no antibacterial activity”. In data set [5], the “cytotoxicity profile (SRB-based assay)” value is on record as “reduced cytotoxicity profile”. In data set [1] (setting [9]), the half-maximal inhibitory concentration (IC50) was around 300 nM and the IC90 is around 800 nM. For the same compound, in data set [2] (setting [10]), the IC50 is around 300 nM and the IC90 is around 800 nM. The “cytotoxicity profile (MTT-based assay)” value in data set [6] is recorded as “reduced cytotoxicity profile”. For the same compound, the “antibacterial activity, growth of E. coli” value with E. coli is “no antibacterial activity”.

Broadly, the IC50 is the concentration needed to halve the response being measured. As usually defined, the IC90 is the concentration at which the effect reaches the 90% level. The term EC50 denotes the concentration giving half of the maximal effect.
